Among the test systems are SF-268; KM-20L2; SN12C; MOLT-4; HOP-62; U-251; CAKI-1; HCC 2998; NCI-H460; LOX IMVI; SK-MEL-5; HT-29; NCI-H522; SK-MEL-28; COLO 205; KM12; SNB-75.
Common to all, as to assay: growth of human tumour cells (NCI), 48 h

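Step 1: Grow cells in 96-well plates. Step 2: Expose to compound for 48 hours at 5 concentrations. Step 3: Interpolate endpoints linearly; if unreached, use highest concentration. GI50 marks 50% less growth.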 Calls of active or inactive are those of the source. Cut-off read from the data, not from the text of the source: active = GI50 up to about 1.1 µM and inactive = higher.

With `COc1ccc2nc3cc(Cl)ccc3c(NC(C)CCCN(CCCl)CCCl)c2c1` (configuration not stated), the GI50 in the test with SF-268 is 0.273 µM (active); with KM-20L2 it was 0.356 µM (active); with SN12C, 0.269 µM (active); in the test on MOLT-4, 0.054 µM (active); with HOP-62, 1.4 µM (inactive); in the test on U-251, 0.607 µM (active). Further, the GI50 was 0.785 µM (active) in the test with CAKI-1; 1.35 µM (inactive) in the test on HCC 2998; 0.159 µM (active) in the test with NCI-H460; 0.176 µM (active) in the test on LOX IMVI; 1.97 µM (inactive) in the test with SK-MEL-5; 0.272 µM (active) in the test with HT-29. The GI50 in the test on NCI-H522 is 0.55 µM (active); in the test on SK-MEL-28, 5 µM (inactive); in the test on COLO 205 it was 0.397 µM (active); in the test on KM12 it was 0.52 µM (active); with SNB-75 it was 1.42 µM (inactive).

Regarding `Nc1cccc(C(=O)/C=C/c2ccccc2O)c1`, the GI50 in the test with SF-268 is > 100 µM (inactive); in the test with KM-20L2, > 100 µM (inactive); in the test with SN12C it was > 100 µM (inactive); with MOLT-4, > 100 µM (inactive); in the test with HOP-62, > 100 µM (inactive); with U-251, 98.6 µM (inactive). Further, the GI50 in the test on CAKI-1 is > 100 µM (inactive); with HCC 2998, > 100 µM (inactive); in the test with NCI-H460, > 100 µM (inactive); in the test with LOX IMVI it was 31.4 µM (inactive); in the test with SK-MEL-5, > 100 µM (inactive); in the test on HT-29, 68.2 µM (inactive). For the same molecule, the GI50 was 59.4 µM (inactive) in the test on NCI-H522; > 100 µM (inactive) with SK-MEL-28; > 100 µM (inactive) in the test with COLO 205; > 100 µM (inactive) with KM12; 13.2 µM (inactive) in the test on SNB-75.

Regarding `C[C@]12CCC(=O)C(OC(=O)c3ccc([N+](=O)[O-])cc3)=C1CCC2=O`, the GI50 in the test with SF-268, with KM-20L2, in the test on SN12C, with MOLT-4, in the test on HOP-62 and in the test on U-251 was > 100 µM (inactive) in each case. The GI50 with CAKI-1, in the test with HCC 2998, in the test with NCI-H460, with LOX IMVI, with SK-MEL-5 and in the test on HT-29 was > 100 µM (inactive) throughout. Also, the GI50 in the test with NCI-H522 is > 100 µM (inactive); with SK-MEL-28, > 100 µM (inactive); with COLO 205 it was 98.6 µM (inactive); with KM12, > 100 µM (inactive); in the test with SNB-75, > 100 µM (inactive).

With `C[S+]=c1sc2ccccc2s1`, the GI50 with SF-268, with KM-20L2, with SN12C, in the test on MOLT-4, in the test with HOP-62 and in the test with U-251 was > 100 µM (inactive) in each case. Further, the GI50 in the test with CAKI-1, with HCC 2998, with NCI-H460, in the test with LOX IMVI, in the test with SK-MEL-5 and with HT-29 was > 100 µM (inactive) in each case. The GI50 in the test on NCI-H522, in the test with COLO 205, in the test on KM12 and with SNB-75 was > 100 µM (inactive) in each case.

For the origin of these results see ChEMBL document CHEMBL1201862, “PubChem BioAssay data set” (2004).
